Test results: patent publication US20250041190A1, “Composition and application, in particular cosmetic” (MICROPHYT, priority 2021, published 2025)

Key:
[1] = tested on: MOR receptor (μ-opioid receptor); assay: MOR receptor immunolabeling in co-culture of human keratinocytes and sensory neurons stressed with AITC; assay type: cell-based; details: positive control: AITC 1 mM alone; composition-free control (DMSO 0.2%) = 100; n=6
Method: (§1) Sensory neurons were obtained from hiPS cells (human induced pluripotent stem cells), which were themselves obtained from human fibroblasts. The cells were seeded and maintained for 6 days in a differentiation-inducing medium at 37° C. (5% CO2). The culture medium was changed every 2 days. After 9 days in culture, the culture medium was replaced with a maturation medium. Cells were maintained in culture at a temperature of 37° C. under 5% CO2. The culture medium was changed every 2-3 days. After 14 days in culture, commercial keratinocytes from an adult donor (Lonza) were added to the differentiated hiPS cell culture. The co-culture was maintained in a culture medium consisting of a mixture of maturation medium and keratinocyte growth medium (Promocell) at a temperature of 37° C. under 5% CO2. The culture medium was changed every 2-3 days.
(§2) After a 17-day co-culture period, the composition was added to the medium at a final concentration by weight relative to the total weight of the medium and composition of 0.01% or 0.05% (w/w). […]
(§3) Photographs were taken with an automated microscope (InCell 2200; GE Healthcare) at ×20 magnification. MOR marker expression density was measured and compared with the control condition, corresponding to the mean of 6 samples (n=6). […]

neuropeptide CGRP [2] = assay: CGRP ELISA assay in co-culture of keratinocytes and sensory neurons, oxidative stress with AITC; assay type: cell-based, human; details: positive control: AITC 1 mM alone, 30 min stress; unstressed control (DMSO 0.2%) = 100; n=6
Method: as §1, §2
CGRP assay: After a 30-minute stress period, the culture supernatants were recovered and a CGRP assay by ELISA was performed. The results are expressed as the mean of 6 samples (n=6). […]

[3] = tested on: co-culture of sensory neurons and keratinocytes; assay: Length of neuronal extensions in co-culture of sensory neurons and keratinocytes stressed with capsaicin; assay type: cell-based, human; details: positive control: capsaicin 10 μM alone; composition-free control (DMSO 0.2%) = 100; n=6
Method: as §1
After a 17-day co-culture period, the composition was added to the medium at a final concentration by weight relative to the total weight of the medium and composition of 0.01% or 0.05% (w/w).
After a 24-hour incubation period, capsaicin (10 µM) or AITC (1 mM) or DMSO (0.2% w/w) as a control, was added to the co-culture in the presence of the composition according to the invention. […]
A neuron count was performed and the length of the neuronal extensions was measured for each condition. […]

neuropeptide CGRP [4] = assay: CGRP ELISA assay in co-culture of keratinocytes and sensory neurons, oxidative stress with capsaicin; assay type: cell-based, human; details: positive control: capsaicin 10 μM alone, 30 min stress; unstressed control (DMSO 0.2%) = 100; n=6
Method: Sensory neurons were obtained from hiPS cells (human induced pluripotent stem cells), which were themselves obtained from human fibroblasts. The cells were seeded and maintained for 6 days in a differentiation-inducing medium at 37° C. (5% CO2). The culture medium was changed every 2 days. After 9 days in culture, the culture medium was replaced with a maturation medium. Cells were maintained in culture at a temperature of 37° C. under 5% CO2. The culture medium was changed every 2-3 days. After 14 days in culture, commercial keratinocytes from an adult donor (Lonza) were added to the differentiated hiPS cell culture. The co-culture was maintained in a culture medium consisting of a mixture of maturation medium and keratinocyte growth medium (Promocell) at a temperature of 37° C. under 5% CO2. The culture medium was changed every 2-3 days. After a 17-day co-culture period, the composition was added to the medium at a final concentration by weight relative to the total weight of the medium and composition of 0.01% or 0.05% (w/w). After a 24-hour incubation period, capsaicin (10 µM) or AITC (1 mM) or DMSO (0.2% w/w) as a control, was added to the co-culture in the presence of the composition according to the invention. […] The results are expressed as the mean of 6 samples (n=6).

[5] = tested on: MOR receptor (μ-opioid receptor); assay: MOR receptor immunolabeling in co-culture of human keratinocytes and sensory neurons stressed with capsaicin; assay type: cell-based; details: positive control: capsaicin 10 μM alone; composition-free control (DMSO 0.2%) = 100; n=6
Method: as §1, §2, §3

Compound | Level of MOR receptor protein expression (%) [1] | Protein amount of CGRP (%) (neuropeptide CGRP [2]) | Length of neuronal extensions/nbr of neurons (%) [3] | Protein amount of CGRP (%) (neuropeptide CGRP [4]) | Level of MOR receptor protein expression (%) [5]
C=CCN=C=S [AITC, allyl isothiocyanate] | 78% | 132% |  |  | 
COc1cc(CNC(=O)CCCC/C=C/C(C)C)ccc1O [capsaicin] |  |  | 76% | 135% | 82%
